According to patent US9975906B2, “Tricyclic heterocycle derivatives having HIV replication inhibitory effect” (Shionogi & Co., Ltd., priority 2014, dated 2018):
In brackets after ≈: the same amount, converted by molar mass. Where two headings read alike, the source gives them in different places.

Key:
[1] = test system: HIV (HTLV-IIIB strain); assay: HIV Replication Inhibition Assay; assay type: cell-based; conditions: Human immunodeficiency virus 1, MT4, 96 h, MT-4 cells, cultured four days, MTT, concentration at which cell cytotoxicity by virus is inhibited 50%
Method: HIV (HTLV-IIIB strain) persistent infected human T cell strain Molt-4 clone 8 was cultured in 10% Fetal Bovine Serum-containing RPMI-1640 medium and the supernatant was filtered, then the virus titer was measured and the solution was stored at −80° C. Each anti-human immunodeficiency virus active substance was diluted with the above cultured medium to the designated concentration, which was dispensed into 96 well micro plate by 50 μL. Next, a MT-4 cell suspended liquid was dispensed by 100 μL (2.5×10^4 cells), then the above HIV-containing supernatant diluted with the above cultured medium was added thereto by 50 μl (60 pfu (plaque forming unit)).
The obtained mixture was cultured at 37° C. in CO2 incubator for four days, then 3-(4,5-dimethylthiazole-2-yl)-2,5-diphenyltetrazolynium bromide (MTT) 5 mg/mL in PBS was added to each well by 30 μL, followed by 1 hr-cultivation. In this step, as formazan was precipitated by reduction of MTT in living cells, the cell supernatant was removed from all was by 150 μL, then a 150 μL of solution (10% Triton X-100 and 0.4% (v/v)-HCl containing isopropanol) was added thereto, followed by shaking with a plate mixer, to elute formazan. The formazan was measured with a microreader at OD: 560 nm and 690 nm (reference wavelength) and the result was compared with the reference. EC50 means the compound concentration at which cell cytotoxicity by virus is inhibited 50%.

[2] = target: T1, CYP2C9 (Homo sapiens, UniProt P11712); assay: CYP Inhibition Assay (tolbutamide methyl-hydroxylation); assay type: in vitro ADME; conditions: pooled human hepatic microsome, 100 μmol/L tolbutamide, 15 minutes, 37° C.
T1 construct: enzyme, pooled human hepatic microsome 0.2 mg protein/mL; from tissue
Method: Using commercially available pooled human hepatic microsome, and employing, as markers, 7-ethoxyresorufin O-deethylation (CYP1A2), tolbutamide methyl-hydroxylation (CYP2C9), mephenytoin 4'-hydroxylation (CYP2C19), dextromethorphan O-demethylation (CYP2D6), and terfenadine hydroxylation (CYP3A4) as typical substrate metabolism reactions of human main five CYP enzyme forms (CYP1A2, 2C9, 2C19, 2D6, 3A4) an inhibitory degree of each metabolite production amount by a test compound was assessed. […] After the centrifugation at 3000 rpm for 15 minutes, resorufin (CYP1A2 metabolite) in the supernatant was quantified by a fluorescent multilabel counter and tolbutamide hydroxide (CYP2C9 metabolite), mephenytoin 4' hydroxide (CYP2C19 metabolite), dextrorphan (CYP2D6 metabolite), and terfenadine alcohol (CYP3A4 metabolite) were quantified by LC/MS/MS. A reaction system containing only DMSO which is a solvent for dissolving a drug was adopted as a control (100%), and the remaining activity (%) was calculated, then IC50 was calculated by reverse presumption with a logistic model using a concentration and an inhibition rate.

[3] = Metabolism Stability Test; assay type: in vitro ADME; conditions: compound concentration 0.5 μmol/L, human liver microsomes, NADPH, 37° C., 30 minutes
Method: Commercially available pooled human hepatic microsomes and a test compound were reacted for a constant time, then a remaining rate was calculated by comparing a reacted sample and an unreacted sample, thereby a degree of metabolism of the test compound in liver was assessed. A reaction was performed (oxidative reaction) at 37° C. for 0 minute or 30 minutes in the presence of 1 mmol/L NADPH in 0.2 mL of a buffer (50 mmol/L Tris-HCl, pH 7.4, 150 mmol/L potassium chloride, 10 mmol/L magnesium chloride) containing 0.5 mg protein/mL of human liver microsomes. After the reaction, 50 μL of the reaction solution was added to 100 μL of a methanol/acetonitrile=1/1 (v/v), mixed and centrifuged at 3000 rpm for 15 minutes. The test compound in the supernatant was quantified by LC/MS/MS, and a remaining amount of the test compound after the reaction wad calculated, letting a compound amount at 0 minute reaction time to be 100%. Hydrolysis reaction was performed in the absence of NADPH and glucuronidation reaction was in the presence of 5 mM UDP-glucuronic acid in place of NADPH, followed by similar operations. (Result) The residual rate of the compound concentration 0.5 μmol/L in the oxidation reaction was shown below.

[4] = Powder Solubility Test; assay type: physicochemical; conditions: thermodynamic from solid, shaken 1 hour at 37° C.
Method: Appropriate amounts of the test substances are put into appropriate containers. To the respective containers are added 200 μL of JP-1 fluid (sodium chloride 2.0 g, hydrochloric acid 7.0 mL and water to reach 1000 mL), 200 μL of JP-2 fluid (phosphate buffer (pH 6.8) 500 mL and water 500 mL), and 200 μL of 20 mmol/L TCA (sodium taurocholate)/JP-2 fluid (TCA 1.08 g and JP-2 fluid to reach […]). IN the case that all amount of the test compound is dissolved after the addition of the test fluid, the test compound is added as appropriate. The containers are sealed, and shaken for 1 hour at 37° C. The mixtures are filtered, and 100 μL of methanol is added to each of he filtrate […] so that the filtrates are two-fold diluted. The dilution ratio may be changed if necessary. The dilutions are observed for bubbles and precipitates, and then the containers are sealed and shaken. Quantification is performed by HPLC with an absolute calibration method.

T1 sequence (P11712 whole entry): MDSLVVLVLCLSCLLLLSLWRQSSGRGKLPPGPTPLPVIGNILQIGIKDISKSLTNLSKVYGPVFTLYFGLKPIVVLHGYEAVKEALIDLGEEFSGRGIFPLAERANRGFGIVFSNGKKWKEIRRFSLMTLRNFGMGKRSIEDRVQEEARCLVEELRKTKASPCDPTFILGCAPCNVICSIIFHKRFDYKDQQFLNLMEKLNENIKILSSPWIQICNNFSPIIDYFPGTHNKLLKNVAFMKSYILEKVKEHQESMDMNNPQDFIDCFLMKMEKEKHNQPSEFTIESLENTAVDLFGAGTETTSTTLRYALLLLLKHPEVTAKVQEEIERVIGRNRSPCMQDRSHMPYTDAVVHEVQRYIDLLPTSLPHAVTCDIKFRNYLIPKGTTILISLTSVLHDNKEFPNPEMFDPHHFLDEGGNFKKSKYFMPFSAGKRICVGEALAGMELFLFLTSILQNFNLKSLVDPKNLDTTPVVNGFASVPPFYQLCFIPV

**Q.** What does the source list for `Cc1ccc(-c2c([C@H](OC(C)(C)C)C(=O)O)c(C)c3c4c2cc(-c2ccnc(-c5ccc6c(cnn6C)c5)c2)n4CCN3CCN(C)C)cc1` [Compound I-034]?
**A.** EC50 [1]: 2.4 nM; IC50 [2]: > 20000 nM; residual rate in the oxidation reaction [3]: > 99.9%; solubility at 1 h ([4]; aqueous buffer, JP-2 fluid (phosphate buffer pH 6.8), read-out: powder solubility, JP-2 fluid): 0.603 µg/mL (≈ 0.899 µM); solubility at 1 h ([4]; pH 1.2, simulated gastric fluid, JP-1 fluid, read-out: powder solubility, JP-1 fluid): > 1000 µg/mL; solubility at 1 h ([4]; pH 6.8, fassgf or other biorelevant, 20 mmol/L TCA (sodium taurocholate)/JP-2 fluid, read-out: powder solubility, 20 mmol/L TCA/JP-2 fluid): > 1000 µg/mL
